“Also recorded” adds a separate entry of the source.
Tests used:
trkA mRNA = conditions: adult female rat DRG neurons in vivo [90]; listed as estrogen; cited from earlier work
ERKs = assay: In-gel kinase assay of ERKs with MBP as substrate, cortical explants; format: cell-based
Description: (§1) Estrogen and the neurotrophins have important roles in the developing and adult central nervous system (CNS). […] The hypothesis that estrogen/neurotrophin receptor co-expression leads to reciprocal regulation at the level of signal transduction, through cross-coupling of converging estrogen and neurotrophin signaling pathways whose end-points in the nucleus may be the very same genes was tested. Postnatal day 2 cerebral cortex was maintained as organotypic explants in roller tube culture for 7 days.

PC12-E2 cells = assay: Morphological study of neurite growth in PC12-E2 cells; format: cell-based
Description: (§2) It has been previously reported that wild-type, differentiated PC12 pheochromocytoma cells express very low levels of estrogen receptors. Here it is reported that a PC12 cell variant, PC12-E2 (Wu, Bradshaw, J. Cell Physiol. 164:1995), is estrogen responsive and expresses high estrogen receptor level (≈50% of the levels observed in estrogen receptor over-expressing MCF-7 cells). Moreover, although tyrosine phosphorylation of the estrogen receptor appeared to be expressed constitutively, these cells responded to added estrogen. PC12-E2 responsiveness to estrogen was determined morphologically and by measuring estradiol-induced ERK activation. […] Preliminary co-precipitation experiments show an association between src and estrogen receptor, src with MEK (MAP Kinase/ERK-activating Kinase), and MEK with B-raf, MEK, which phosphorylates the ERKs on tyrosine residues, is known to exist as a complex consisting of at least hsp90 and B-raf.

PC12 cells = assay: Morphology / neurite differentiation of PC12 cells; format: cell-based, rat; conditions: estrogen exposure
p75^NGFR mRNA [1] = conditions: adult female rat DRG neurons in vivo [90]; cited from earlier work
ERKs 1 and 2 [2] = assay: Tyrosine phosphorylation of ERKs 1 and 2 in cerebral cortical explants; format: cell-based; conditions: P2 cortical explants
Description: as §1

trk receptors = assay: Tyrosine phosphorylation of the trk receptors, cortical explants; format: cell-based
Description: as §1

ERK = ERK stimulation in wild-type, differentiated PC12 cells; format: cell-based
ERKs 1 and 2 [3] = assay: ERK activation in PC12-E2 cells; format: cell-based
Description: as §2

p75^NGFR mRNA [4] = assay: Northern blot analysis of p75NGFR mRNA in PC12 cells; format: cell-based, rat; conditions: NGF-treated PC12 cells
Description: PC12 cells were cultured on collagen-coated coverslips or tissue culture dishes in phenol red-free RPMI 1640 (Gibco BRL) nutrient medium supplemented with 10% (heat-inactivated) gelded (steroid-deficient) horse serum (JRH Biological), according to a modification of standard procedures. In these experiments, fetal calf serum, which contains physiologic levels of estrogen, (32 pg/ml) was not used.
Total RNA, prepared by a modification of the Chomczynski and Sacchi method, was size-fractionated (10-20 μg/lane) on a 1.2% agarose-18% formaldehyde gel and capillary-transferred to nylon membrane (Hybond-N; Amersham). Filters were prehybridized (4-18 h) and hybridized (36-40 h) at 42° C. in 50% Formamide, 3× SSC, 0.1M Tris, 5× Denhardt's and 10% Dextran Sulfate. Probes were labeled with [α-^32 P]-dCTP by the random priming procedure (Random Priming kit, Boehringer Mannheim). trkA mRNA was identified by hybridization with pDM97, a 450 bp trkA-specific probe corresponding to the extracellular and transmembrane domains of the trkA gene [67; gift of L. F. Parada, NCI-FCRDC]. p75^NGFR was probed by hybridization with p5b, a 2 Kb probe corresponding to the extracellular domain of the p75^NGFR gene. Blots were washed first in 0.2×SSC and 0.5% SDS briefly at room temperature and then for 2 h at 60° C., with frequent changes of wash buffer. Filters were then exposed to film (Kodak X-Omat) between intensifying screens and stored at -70° C. for 1-4 days before developing.
Using a standard densitometry package (Jandel Scientific), optical density measurements were obtained from X-ray film. trkA and p75^NGFR transcript densities were normalized to an internal control to account for variation in the amount of RNA loaded.
Total RNA was analyzed by Northern blot analyses, using ^32 P-labeled cDNA probes for trkA and p75^NGFR.

estrogen receptor = target: T1, estrogen receptor (Rattus norvegicus, UniProt P06211); assay: Modified nuclear binding assay, basal forebrain explant cultures; format: cell-based; set-up: endogenous in cells; conditions: P2 rat basal forebrain explants, 8 days in vitro, hrNGF 100 ng/mL
T1 sequence (P06211 1-600): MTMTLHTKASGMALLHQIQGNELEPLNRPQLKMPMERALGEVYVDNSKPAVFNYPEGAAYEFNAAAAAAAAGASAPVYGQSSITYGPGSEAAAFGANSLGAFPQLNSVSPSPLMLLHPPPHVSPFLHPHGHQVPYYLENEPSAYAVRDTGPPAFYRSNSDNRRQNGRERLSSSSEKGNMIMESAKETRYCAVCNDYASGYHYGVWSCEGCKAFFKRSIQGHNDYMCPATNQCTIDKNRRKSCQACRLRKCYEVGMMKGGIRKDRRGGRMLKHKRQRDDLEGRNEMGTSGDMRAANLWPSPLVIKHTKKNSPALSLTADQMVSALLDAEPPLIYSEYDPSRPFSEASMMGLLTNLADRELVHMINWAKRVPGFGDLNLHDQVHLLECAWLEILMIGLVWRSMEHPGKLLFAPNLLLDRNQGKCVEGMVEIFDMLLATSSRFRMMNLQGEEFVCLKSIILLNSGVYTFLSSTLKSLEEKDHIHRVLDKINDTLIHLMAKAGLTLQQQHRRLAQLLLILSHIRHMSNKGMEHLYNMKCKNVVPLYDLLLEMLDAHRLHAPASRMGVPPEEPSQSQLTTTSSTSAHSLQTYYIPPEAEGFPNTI
Description: (§3) Time-pregnant rats (Sprague-Dawley) were obtained from Zivic (Miller, Pa.). Organotypic explant cultures were obtained from postnatal day (P) 2 rat brains (P1=day of birth) of both sexes. Brains were slice coronally into 360-μm thick sections using a brain slicer (Toran-Allerand, 1990). A total of four coronal sections from the periseptal region were isolated and dissected into four pairs of hemicoronal cortical [cingulate and neocortex, FIG. 6(a)] and basal forebrain [septum, nuclei of the diagonal band of Broca and ventral pallidum, FIG. 6(b)] sections. […]
Nuclear receptor binding sites were identified using previously published protocols (Sohrabji et al., 1994a,b) and were standardized for this experiment using both MCF-7 cells and hypothalamic tissue. […] Radioactivity was eluted from nuclear pellets with 95% ethanol (moxestrol is completely soluble in >50% ethanol) and the radioactivity counted in a liquid scintillation counter. […] Specific binding was determined as the difference between total binding and non-specific binding (in the presence of an unlabeled competing ligand) and the data expressed as femtomoles of specifically bound [^3 H] -moxestrol/mg DNA. […]

estrogen receptor mRNA [5] = assay: Semiquantitative RT-PCR of estrogen receptor mRNA in cortical and basal forebrain explant cultures; format: cell-based, rat; conditions: cortical and basal forebrain explants, hrNGF 100 ng/mL
Description: Time-pregnant rats (Sprague-Dawley) were obtained from Zivic (Miller, Pa.). Organotypic explant cultures were obtained from postnatal day (P) 2 rat brains (P1=day of birth) of both sexes. Brains were slice coronally into 360-μm thick sections using a brain slicer (Toran-Allerand, 1990). A total of four coronal sections from the periseptal region were isolated and dissected into four pairs of hemicoronal cortical [cingulate and neocortex, FIG. 6(a)] and basal forebrain [septum, nuclei of the diagonal band of Broca and ventral pallidum, FIG. 6(b)] sections. Hemicoronal explants were maintained in roller tube assemblies (Caeser et al., 1989; Gahwiler et al., 1991), on collagen coated coverslips for 8 days in vitro, in serum supplemented (25% gelded horse serum, JRH), steroid deficient and phenol red free medium containing 50% basal medium (Eagle's), 25% Hank's balanced salt solution (HBSS), and 0.65% glucose. […] Cultures were fed 3 times a week.
Estrogen receptor mRNA expression was assessed by semiquantitative RT-CPR, using RNA isolated from pooled cortical (two explants pooled/sample) and basal forebrain (four explants pooled/sample) cultures. PCR primers (gift of B. Schachter, Mount Sinai Hospital) were designed to amplify a 300 base pair (bp) sequence from the region coding for the ligand binding domain (Sohrabji et al., 1994b). […]

estrogen receptor mRNA [6] = assay: Isotopic in situ hybridization of estrogen receptor mRNA in cortical explant cultures; format: cell-based, rat; conditions: cortical explants, hrNGF 100 ng/mL
Description: as §3
Estrogen receptor mRNA was detected in cerebral cortical cultures in using […] oligonucleotide probes complementary to a sequence within rat estrogen receptor mRNA coding for hormone binding domain (Miranda et al., 1993b, 1994; Miranda and Toran-Allerand, 1992; Toran-Allerand et al., 1992b). […] Isotopically (^35 S)-labeled hybrids were detected in whole explant cultures by desiccating the cultures and apposing them to autoradiographic film (Kodak X-omat). The intensity of mRNA expression was quantified as the density of film exposure over the explant divided by the density over background using a standard morphometrics package (Jandel Scientific).

Molecule	Increase in trkA mRNA (trkA mRNA)	Activity of phosphorylated ERKs in phosphorylating MBP vs untreated controls (ERKs)	Neurite outgrowth (PC12-E2 cells)	Effect on morphology / neurite differentiation (PC12 cells)	p75NGFR mRNA (p75^NGFR mRNA [1])	Persistence of tyrosine phosphorylation of the ERKs (ERKs 1 and 2 [2])	Time of maximal tyrosine phosphorylation of the ERKs (ERKs 1 and 2 [2]) [min]	Onset of tyrosine phosphorylation of the ERKs (ERKs 1 and 2 [2]; 24 hrs estrogen and neurotrophin deprivation) [min]	Tyrosine phosphorylation of the trk receptors (trk receptors)	Estradiol-induced ERK stimulation (ERK)	Time to tyrosine phosphorylation of ERKs 1 and 2 (ERKs 1 and 2 [3]) [min]	p75NGFR mRNA level (p75^NGFR mRNA [4]; 1 day after estrogen treatment)	p75NGFR mRNA level (p75^NGFR mRNA [4]; 3 days of estrogen exposure)	p75NGFR mRNA level (p75^NGFR mRNA [4]; 3 days of estrogen exposure, 4320 min)	p75NGFR mRNA level (p75^NGFR mRNA [4]; 7 days of estrogen treatment)	Density of estrogen binding sites (estrogen receptor)	Estrogen receptor mRNA (normalized to cyclophilin mRNA) vs control (estrogen receptor mRNA [5])	Estrogen receptor mRNA, density of hybridization signal (estrogen receptor mRNA [6])
C[C@]12CC[C@@H]3c4ccc(O)cc4CC[C@H]3[C@@H]1CC[C@@H]2O [estradiol, 17-β estradiol]	two to three-fold	much more active	little effect	no readily visible effects; also recorded: did not appear to influence visibly	transient decrease	at least 4 hrs.	30	≤ 5	induced tyrosine phosphorylation	no estradiol-induced ERK stimulation was observed	≤ 15	below basal levels	decreased by half	approximately 50 % of baseline	indistinguishable from basal levels; also recorded: no different from basal levels			
hrNGF: human recombinant NGF (gift of Louis Burton, Genetech)																did not significantly alter and not	no different; also recorded: did not lead to an alteration	No alterations; also recorded: did not lead to an alteration

From patent publication US5990078A, “Means of increasing estrogen receptor levels in neural tissue” (The Trustees of Columbia University in the City of New York, priority 1996, dated 1999)
